Assay: gradient 5% acetonitrile 3 min, to 50% in 2 min, to 85% in 15 min, held 3 min, 100 µL/min
Details: column: Zorbax Extend-C18 2.1 x 50 mm; eluents: water / acetonitrile, 0.1% formic acid
How it was run: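 Using water and acetonitrile that each contained 0.1% formic acid, mixtures of ~100 pure standards were separated at 100 μL/min on a Zorbax Extend-C18 column (2.1 × 50 mm, 1.8 μm). The HPLC fed a quadrupole time-of-flight mass spectrometer working in positive and negative ionization mode, with dead and dwell volumes of 40 μL and 900 μL. Data were acquired over 3 months. Retention time was read from computationally picked adduct peaks after manual inspection of each.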

Row | SMILES | RP-LC retention time [s]
1 | CCCN1CCN(C(=O)CN2C(=O)C(C)(C)c3cc(C)ccc32)CC1 | 624
2 | CCN(CCN(C)C)c1ccc(C(=O)O)cc1NS(=O)(=O)c1cccc(C)c1 | 620
3 | C[C@@H](NC(=O)c1ncnc(N)c1Cl)c1ncc(C(=O)Nc2cc(C(F)(F)F)c(Cl)cn2)s1 | 913
4 | Cc1sc2cc(C(=O)NCC3CC3)[nH]c2c1CN1CCCCC1 | 634
5 | O=C(Nc1ccc(F)c(Cl)c1)N1CCc2nc[nH]c2C1 | 614
6 | COc1cccc(Cc2nc(Cn3c(C)nc4ccccc4c3=O)no2)c1 | 812
7 | O=C(Nc1nnc(SCc2ccc(Br)cc2)s1)c1ccccc1F | 1020
8 | CS(=O)(=O)Nc1ccc(C2(C(=O)NCc3ccccc3F)CCCCC2)cc1 | 904
9 | CCOc1ccc(-c2csc(Cc3nc(-c4ccccc4)no3)n2)cc1 | 1230
10 | C[C@H]1C/C=C/[C@H]2[C@@H]3O[C@]3(C)[C@@H](C)[C@H]3[C@H](Cc4ccccc4)NC(=O)[C@]32OC(=O)O/C=C/[C@](C)(O)C1=O | 870
11 | Cc1ccc(NC(=O)C2CCCN(S(=O)(=O)c3c[nH]c(C(=O)N4CCCC4)c3)C2)cc1 (stereo not given) | 850
12 | Cc1cc2n(n1)CCCN2C(=O)CCC(=O)N1CCN(Cc2ccc3c(c2)OCO3)CC1 | 577
13 | Cc1ccc2oc(C(=O)NCc3ccc4c(c3)OCO4)cc2n1 | 635
14 | COc1ccc(Cl)cc1N1CC(c2nc(-c3cc(OC)c(OC)c(OC)c3)no2)CC1=O (stereo not given) | 905
15 | O=C(NC1CCCCC1N1C(=O)CSC1=O)c1cc(Cl)ccc1Cl (stereo not given) | 810
16 | CC1=C(c2ccc(F)cc2)S(=O)(=O)N=C1N1CCCN(C(=O)CC(C)C)CC1 | 814
17 | COc1ccccc1C(=O)Nc1nc(-c2ccccc2)cs1 | 1110
18 | CCCN1C(=O)c2cc(S(=O)(=O)N(C)Cc3ccccc3)ccc2Oc2cccnc21 | 1190
19 | CN(C)c1ccc(C(=O)N2CCCC2COc2ccc(C(=O)N3CCCC3)cc2)cc1 (stereo not given) | 748
20 | O=C(Nc1nc2c(s1)CCc1ccccc1-2)Nc1c(F)cccc1F | 914
21 | Cc1ccc(F)c(NS(=O)(=O)c2cc(-c3nc(C(C)(C)C)cs3)cs2)c1 | 1260
22 | O=C(O)CCCC(=O)Nc1nc(-c2ccccc2)c(-c2ccccc2)s1 | 893
23 | CCCCn1c(=O)c2ccccc2n(Cc2nc(-c3cccc(OC)c3)no2)c1=O | 1160
24 | COCC(=O)N[C@@H]1CN(C(=O)C2CC=CC2)CC[C@@H]1CO | 578
25 | COC(=O)c1ccc(NC(=O)c2[nH]c3cc(C)sc3c2CN(C)C)cc1 | 670

Row | SMILES | RP-LC retention time [s]
26 | OC1(c2ccccc2)CCN(Cc2ccccc2)CC1 | 553
27 | COc1cc(NC(=O)c2sc(-n3cccc3)nc2C(C)C)cc(OC)c1 | 1210
28 | CCn1c(SC)nnc1-c1nn(C)c2c1CN(C(=O)C1CCCCC1)CC2 | 815
29 | COC(=O)C(C)NC(=O)NCc1cccn1Cc1cc(C)ccc1C (stereo not given) | 885
30 | CC(C)OCCCNC(=O)C1Cn2cccc2C(=O)N1C (stereo not given) | 621
31 | O=C1COc2cc(S(=O)(=O)N3CCCC3C(=O)NC3CCCCCCC3)c(Cl)cc2N1 (stereo not given) | 864
32 | CCc1ccc(NC(=O)CCc2c(C)n(C)c3nc(-c4ccccc4)nn3c2=O)cc1 | 893
33 | Cc1ccc(-c2[nH]ncc2CN2CCC3(CC2)CC(C)(O)CCO3)cc1 (stereo not given) | 597
34 | O=c1c2nnc3ccnn3c2ccn1CCc1c[nH]c2ccccc12 | 700
35 | CC1(C)CC(=O)c2cn(-c3ccccc3)c(=O)c(C(=O)Nc3ccccc3F)c2C1 | 1040
36 | CCOC(=O)c1nnn(-c2ccc(OCC)cc2)c1C(=O)OCC | 1040
37 | COc1cc(NC(=O)NCC2(O)CCCC2)cc(OC)c1 | 660
38 | COc1ccc(-c2c(C)noc2NC(C)=O)cc1S(=O)(=O)Nc1ccc(Br)cc1F | 817
39 | CCOc1ccc(-c2nc(C3CC(=O)N(c4ccc(OC)c(OC)c4)C3)no2)cc1 (stereo not given) | 912
40 | COc1ccc2nc(C(=O)N(C)Cc3ccccc3)cn2n1 | 790
41 | CCN1CCN(CCNC(=O)C2CN(C(=O)c3cccs3)CC23CCCCC3)CC1 (stereo not given) | 589
42 | CC(C)n1c(=O)c(NCc2ccc(OC(F)(F)F)cc2)nc2ccncc21 | 733
43 | Cc1cccc(-n2c(=O)c3c(cc(C)n3C)n(CC(=O)Nc3ccc4c(c3)OCO4)c2=O)c1 | 837
44 | CN(CCc1ccccn1)C(=O)c1cccc(N2CCNC(c3ccccc3)C2)n1 (stereo not given) | 555
45 | COCCCNC(=O)C1CCCN(C(=O)c2cc(C)cc(C)c2)C1 (stereo not given) | 700
46 | Cc1ccccc1-c1nc(-c2ccc3nnn(C)c3c2)no1 | 1060
47 | Cc1nc(-c2ccc(-c3noc(-c4cncc(Br)c4)n3)cc2)cs1 | 1250
48 | O=C(CN1CC=C(c2cnn(-c3ccccc3)c2)CC1)N1CCC(N2CCCCC2)CC1 | 573
49 | O=C(NC1CC1)c1n[nH]c2c1CCCCCC2 | 719

Second part, the compound after the results:

Row | RP-LC retention time [s] | SMILES
50 | 713 | COc1ccc(N(Cc2nnc3n2CCCCC3)C(=O)Nc2ccccc2)c(OC)c1
51 | 914 | O=C(NCC(=O)N1CCCc2ccccc21)C1CCN(S(=O)(=O)c2ccc(Cl)cc2)CC1
52 | 762 | COCCn1cc(CCNC(=O)Nc2cccc(Cl)c2)c2cccnc21
53 | 633 | COc1ccc2nc3oc(C(=O)NCCN4CCCCC4C)cc3cc2c1 (stereo not given)
54 | 854 | CCOC(=O)C1CCCN(C(=O)c2csc3nc(-c4ccc(F)cc4)cn23)C1 (stereo not given)
55 | 703 | Cc1ccc(C(O)CN2CCN(c3ccccc3)CC2)c(C)c1 (stereo not given)
56 | 667 | O=C(Nc1nc(-c2cccnc2)cs1)c1csc(-n2cccc2)n1
57 | 592 | CC(C)C(=O)NCC(c1ccc(N(C)C)cc1)N1CCN(c2ccc(F)cc2)CC1 (stereo not given)
58 | 696 | Cc1ccc(-c2ccc(N3CCCC(C(=O)NC4CCCC4)C3)nn2)cc1 (stereo not given)
59 | 1080 | CC(C)N1C(=O)C(C)(C(=O)NC2CCCCCC2)Oc2cccnc21 (stereo not given)
60 | 757 | Cc1ccccc1NC(=O)C1CCN(c2nc(C3CCC3)nc3csc(C)c23)CC1
61 | 975 | COCCn1cc2c3c(cccc31)CN(C(=O)Cc1ccccc1Cl)CC2
62 | 560 | Cn1ccc2c(cc(C(=O)N3CCN(c4ccccn4)CC3)n2C)c1=O
63 | 787 | O=C(NCc1ccc2c(c1)OCO2)c1nc2ccccn2c1-c1ccsc1
64 | 737 | O=C(NCCC1CCN(C(=O)Nc2ccc(F)cc2F)CC1)c1cccs1
65 | 1160 | CC1CCc2onc(C(=O)Nc3cccc(Cl)c3)c2C1 (stereo not given)
66 | 656 | Cc1nnc2c(=O)n(CC(=O)NCc3cccc(F)c3)c3cccnc3n12
67 | 723 | COc1ccc(NC(=O)C2CCN(c3nnc4ccc(Cl)cn34)CC2)c(OC)c1
68 | 997 | CCc1cc(C(=O)Nc2ccc(Cl)cc2)no1
69 | 810 | Cc1scc2nc(C3CCC3)nc(N3CCC(C(=O)N4CCN(c5ccc(F)cc5)CC4)CC3)c12
70 | 930 | O=C(c1n[nH]c2ccccc12)N1CCCC1c1nc(-c2ccc(F)cc2F)no1 (stereo not given)

Row | RP-LC retention time [s] | SMILES
71 | 1130 | CCc1nc(-c2csc(S(=O)(=O)N3CCCC(C(=O)Nc4cc(Cl)ccc4C)C3)c2)no1 (stereo not given)
72 | 974 | Cc1ccc(C)c(Cn2nc3c(S(=O)(=O)N4CCCCC4)cccn3c2=O)c1
73 | 574 | Brc1ccc(CN2CCc3nc(N4CCN(c5ccccn5)CC4)ncc3C2)cc1
74 | 615 | O=C(NCCc1c[nH]c2ccccc12)C1CCN(c2nc3ccccc3[nH]2)CC1
75 | 1110 | Cc1nc(-n2cccc2)sc1C(=O)N1CC(c2nc(-c3cccc(Cl)c3)no2)C1
76 | 650 | O=C(Nc1nccs1)C1CC(=O)N(c2n[nH]c3cccc(F)c23)C1 (stereo not given)
77 | 566 | CN(C)c1ccc2c(c1)CN(C(=O)c1cnccn1)CCO2
78 | 586 | CC(C)NC(=O)c1ccc2ncnc(N3CCCCC3)c2c1
79 | 853 | Cc1ccc(CNC(=O)C2(c3ccc(NC(=O)C4CC4)cc3)CCC2)cc1
80 | 770 | COc1ccccc1N1CCN(C(=O)CN2C(=O)NC(c3ccc(Cl)cc3)C3=C2COC3=O)CC1 (stereo not given)
81 | 1420 | CCn1c(=O)c(N2CCCC(C(=O)N3CCN(c4cc(Cl)ccc4C)CC3)C2)nc2ccccc21 (stereo not given)
82 | 757 | COc1ccccc1CNC(=O)c1cn(-c2cc(N3CCOCC3)ncn2)cn1
83 | 784 | O=C(c1ccccn1)N1CCN(C(=O)c2nnn3c2COC(c2ccc(Cl)cc2)C3)CC1 (stereo not given)
84 | 647 | O=C(Nc1cccc(-c2ccc(N3CCCC3)nn2)c1)c1ccccc1F
85 | 820 | O=C(CSc1ncnc2c1nnn2-c1cccc(Cl)c1)NCC1CCCO1 (stereo not given)
86 | 1020 | O=C(Nc1c(Cl)cncc1Cl)c1ccc(OC(F)F)c(OCC2CC2)c1
87 | 740 | CC1CCN(c2cncnc2-n2cc(NC(=O)Cc3cccs3)cn2)CC1
88 | 999 | CCc1cc(C(=O)N2CCCC2c2ccc(C)cc2)no1 (stereo not given)
89 | 669 | Cc1nc2cccnc2n1C1CCN(C(=O)Nc2ccc(Br)cc2)CC1
90 | 885 | Cc1ccn(-c2ccc(C(=O)NC3CCCCC3)cn2)n1
